{"source": "paper PMC4838876", "about": "“Multivalent display of minimal Clostridium difficile glycan epitopes mimics antigenic properties of larger glycans” (Nature Communications, 2016)", "tested_on": "mAb 2C5 (anti-PS-I IgG1)", "assay": "Kinetic SPR of glycans binding to captured mAb 2C5", "design": "species or system mouse", "conditions": "for off-rate: mAb 2C5; for Kd: mAb 2C5, PBS, 25 °C", "description": "Kinetic SPR experiments were performed to determine the binding strengths of the mAbs to PS-I glycans expressed as dissociation constants (KD)[8] (Fig. 5a). […] Overall, the SPR measurements (summarized in Table 1) confirmed results obtained by glycan microarray presented above.\nFigure 5 KD values of anti-PS-I mAbs binding to 1 and 3 inferred by SPR. (a) mAbs were captured with an anti-mouse IgG antibody immobilized on the SPR sensor surface. Glycan antigens were passed over the surface to monitor changes in the response unit signals. (b,c) Representative sensorgrams showing reference-subtracted binding signals to 1 (b) and 3 (c). KD values were calculated by fitting the curves to a 1:1 Langmuir binding model (black overlaid curves) or with a steady-state affinity model (response units versus concentration plots). Indicated KD values are mean±s.e.m. of n=3 or mean with minimum and maximum values in parentheses of n=2 independent experiments. See Supplementary Figs 3–5 for details.\nBinding analyses were carried out on a Biacore T100 instrument (GE Healthcare). CM5 sensor chips were functionalized with about 10,000 RUs of α-mouse IgG capture antibody, using the Mouse Antibody Capture Kit and the Amine Coupling Kit (GE Healthcare) according to the manufacturer's recommendations. A blank-immobilized flow cell was used as reference, to compensate for nonspecific binding of antibodies or oligosaccharides to the sensor chip surface. Kinetic measurements were performed with the Biacore T100 Control software using the ‘Kinetics' function. PBS was used as running buffer and all measurements were performed at 25 °C and a flow rate of 30 μl min^−1. About 500 RUs of mAbs were captured at a concentration of 50 μg ml^−1 diluted in PBS and oligosaccharides or OAAs (in PBS) at the indicated concentrations were passed through, using the standard parameters for association and dissociation times unless mentioned otherwise. Flow cells were regenerated with 10 mM glycine-HCl pH 1.7 for 30 s. Kinetic evaluation of binding responses was performed with the Biacore T100 Evaluation software, using reference-subtracted sensorgrams. Two different kinetic models, a 1:1 binding Langmuir model and a two-state reaction model, which assumes a conformational change in the antibody–analyte complex, were used to fit the data. The fitting quality was evaluated by investigating respective residual plots, χ^2 and s.e. values for on- and off-rates. Both models yielded similar good fittings. We chose the 1:1 binding model over the two-state reaction model to calculate on- and off-rates, as well as KD values, as this model makes fewer assumptions. When on-rates and/or off-rates were outside of the measurable ranges of the instrument, the steady-state affinity model was used instead to determine KD values. The 1:1 binding model was generally preferred over the steady-state affinity model in cases where both could be applied. In these cases, the two models yielded roughly similar KD values. Thermodynamic parameters were inferred by using the ‘Thermodynamics' function of the Biacore T100 Control software with the same experimental set-up described above. Temperatures from 13 to 37 °C were chosen. Values for ΔG, ΔH and ΔS were inferred by van't Hoff analysis. IM analysis was carried out by Ridgeview Diagnostics AB, Uppsala, Sweden.\nSupplementary Figure 3 | KD values of mAb 2C5 to PS‐I oligosaccharide antigens inferred by SPR. […]", "key": {"[1]": {"conditions": "mean±s.e.m. n=3 or mean (min;max) n=2"}}}
{"compound": "C[C@@H]1O[C@@H](O[C@@H]2[C@@H](O)[C@H](OCCCCCN)O[C@H](CO)[C@H]2O)[C@H](O)[C@H](O)[C@H]1O", "note": "[Compound 3, Rha-(1→3)-Glc]", "values": [{"measurement": "off-rate", "result": 0.0016, "unit": "s⁻¹"}, {"measurement": "Kd", "setting": "[1]", "result": 18, "unit": "µM"}]}
{"compound": "C[C@@H]1O[C@@H](O[C@@H]2[C@@H](O)[C@H](O[C@H]3[C@H](O[C@@H]4O[C@@H](C)[C@H](O)[C@@H](O)[C@H]4O)[C@@H](O)[C@@H](O[C@H]4[C@@H](OCCCCCN)O[C@H](CO)[C@@H](O)[C@@H]4O)O[C@@H]3CO)O[C@H](CO)[C@H]2O)[C@H](O)[C@H](O)[C@H]1O", "note": "[Compound 1]", "values": [{"measurement": "off-rate", "result": 0.0019, "unit": "s⁻¹"}, {"measurement": "Kd", "setting": "[1]", "result": "0.163 ± 0.023", "unit": "µM"}, {"measurement": "off-rate koff", "setting": "mAb 2C5, dissociation model fit, mean±s.e.m. n=3 or mean (min;max) n=2", "result": "1.6±0.1 × 10^-3 s^-1"}]}
